Assay results reported in ChEMBL document CHEMBL3217457, “Carbazolepyrrolo[2,1-c][1,4]benzodiazepine conjugates: design, synthesis, and biological evaluation” (Medchemcomm, 2011).
Active and inactive are the calls of the source. The rule behind the calls is not given here.

Tests used:
MCF7 [1] = assay: Cytotoxicity against human MCF7 cells by ATP-dependent cell viability assay; format: functional, cell-based
[2] = Growth inhibition of human BT549 cells; format: functional; details: BT-549
SW-620 = assay: Growth inhibition of human SW620 cells; format: functional
Malme-3M = assay: Growth inhibition of human MALME-3M cells; format: functional
[3] = Growth inhibition of human UO31 cells; format: functional; details: UO-31
[4] = Growth inhibition of human OVCAR4 cells; format: functional; details: OVCAR-4
SNB-75 = assay: Growth inhibition of human SNB75 cells; format: functional
[5] = Growth inhibition of human UACC257 cells; format: functional; details: UACC-257
DU-145 = assay: Growth inhibition of human DU145 cells; format: functional
[6] = Growth inhibition of human HOP92 cells; format: functional; details: HOP-92
MCF7 [7] = assay: Cell cycle arrest in human MCF7 cells assessed as accumulation at G0/G1 phase at 4 uM after 24 hrs by propidium iodide staining based flow cytometry (reference value: 60.75%); format: functional
MCF7 [8] = assay: Cell cycle arrest in human MCF7 cells assessed as accumulation at G1 phase at 4 uM after 24 hrs by propidium iodide staining based flow cytometry (reference value: 57.98%); format: functional
[9] = Growth inhibition of human OVCAR3 cells; format: functional; details: OVCAR-3
SF-268 = assay: Growth inhibition of human SF268 cells; format: functional
NCI-H226 = assay: Growth inhibition of human NCI-H226 cells; format: functional
IGROV-1 = assay: Growth inhibition of human IGROV1 cells; format: functional
Calf thymus DNA = assay: Binding affinity to calf thymus DNA assessed as change in melting temperature at compound to DNA ratio of 1:5 after 18 hrs by thermal denaturation analysis; format: nucleic-acid assay; details: Bos taurus
MCF7 [10] = assay: Cell cycle arrest in human MCF7 cells assessed as accumulation at G0 phase at 4 uM after 24 hrs by propidium iodide staining based flow cytometry (reference value: 2.77%); format: functional
SR = assay: Growth inhibition of human SR cells; format: functional
HL-60(TB) = assay: Growth inhibition of human HL-60(TB) cells; format: functional
SK-MEL-28 = assay: Growth inhibition of human SK-MEL-28 cells; format: functional
COLO 205 = assay: Growth inhibition of human COLO205 cells; format: functional
MDA-MB-468 = assay: Growth inhibition of human MDA-MB-468 cells; format: functional
CCRF-CEM = assay: Growth inhibition of human CCRF-CEM cells; format: functional
[11] = Growth inhibition of human Hs 578T cells; format: functional
[12] = Growth inhibition of human Gurav cells; format: functional
786-0 = assay: Growth inhibition of human 786-0 cells; format: functional
NCI-H23 = assay: Growth inhibition of human NCI-H23 cells; format: functional
NCI-H322M = assay: Growth inhibition of human NCI-H322M cells; format: functional
MCF7 [13] = assay: Cytotoxicity against human MCF7 cells assessed as decrease in cell viability at 4 uM after 24 hrs by MTT assay; format: functional, cell-based
NCI-H460 = assay: Growth inhibition of human NCI-H460 cells; format: functional
KM12 = assay: Growth inhibition of human KM12 cells; format: functional
T47D = assay: Growth inhibition of human T47D cells; format: functional
TK-10 = assay: Growth inhibition of human TK10 cells; format: functional
HT-29 = assay: Growth inhibition of human HT-29 cells; format: functional
MDA-MB-435 = assay: Growth inhibition of human MDA-MB-435 cells; format: functional
MCF7 [14] = assay: Cytotoxicity against human MCF7 cells assessed as decrease in cell viability at 2 to 16 uM after 6 to 48 hrs by MTT assay; format: functional, cell-based
HCT-116 = assay: Growth inhibition of human HCT116 cells; format: functional
NCI-H522 = assay: Growth inhibition of human NCI-H522 cells; format: functional
MCF7 [15] = assay: Growth inhibition of human MCF7 cells; format: functional
[16] = Growth inhibition of human UACC62 cells; format: functional; details: UACC-62
A549 = assay: Growth inhibition of human A549 cells; format: functional
[17] = Growth inhibition of human HCT15 cells; format: functional; details: HCT-15
ACHN = assay: Growth inhibition of human ACHN cells; format: functional
A2780 = assay: Growth inhibition of human A2780 cells; format: functional
SK-OV-3 = assay: Growth inhibition of human SKOV3 cells; format: functional
PC-3 = assay: Growth inhibition of human PC3 cells; format: functional
[18] = Growth inhibition of human MOLT4 cells; format: functional; details: MOLT-4
[19] = Growth inhibition of human SF539 cells; format: functional; details: SF-539
MCF7 [20] = assay: Cell cycle arrest in human MCF7 cells assessed as accumulation at G2/M phase at 4 uM after 24 hrs by propidium iodide staining based flow cytometry (reference value: 24.95%); format: functional
KB = assay: Growth inhibition of human KB cells; format: functional
SNB-19 = assay: Growth inhibition of human SNB19 cells; format: functional
MCF7 [21] = assay: Antiproliferative activity against human MCF7 cells assessed as cell proliferation at 4 uM after 24 hrs by BrdU incorporation assay (reference value: 100%); format: functional; details: MCF7, 24 h, read-out: Activity
U-251 = assay: Growth inhibition of human U251 cells; format: functional
CAKI-1 = assay: Growth inhibition of human CAKI-1 cells; format: functional
M14 = assay: Growth inhibition of human M14 cells; format: functional
SN12C = assay: Growth inhibition of human SN12C cells; format: functional
[22] = Growth inhibition of human OVCAR5 cells; format: functional; details: OVCAR-5
A498 = assay: Growth inhibition of human A498 cells; format: functional
[23] = Growth inhibition of human MDA-MB cells; format: functional
[24] = Growth inhibition of human HCC2998 cells; format: functional; details: HCC 2998
[25] = Growth inhibition of human LOXIMVI cells; format: functional; details: LOX IMVI
[26] = Growth inhibition of human RXF393 cells; format: functional; details: RXF 393
SK-MEL-2 = assay: Growth inhibition of human SK-MEL-2 cells; format: functional
ZR-75-1 = assay: Growth inhibition of human ZR-75-1 cells; format: functional
HOP-62 = assay: Growth inhibition of human HOP62 cells; format: functional
[27] = Growth inhibition of human EKVX cells; format: functional
SK-MEL-5 = assay: Growth inhibition of human SK-MEL-5 cells; format: functional
SiHa = assay: Growth inhibition of human SiHa cells; format: functional
MCF7 [28] = assay: Cell cycle arrest in human MCF7 cells assessed as accumulation at S phase at 4 uM after 24 hrs by propidium iodide staining based flow cytometry (reference value: 14.30%); format: functional

COc1cc2c(cc1OCCCN1CCN(CCCn3c4ccccc4c4ccccc43)CC1)N=C[C@@H]1CCCN1C2=O
inhibition (MCF7 [1]): Active
GI50 [2]: 130 nM
GI50 (SW-620): 40 nM
GI50 (Malme-3M): 150 nM
GI50 [3]: 120 nM
GI50 [4]: 100 nM
GI50 (SNB-75): 150 nM
GI50 [5]: 150 nM
GI50 (DU-145): 40 nM
GI50 [6]: 270 nM
Activity (MCF7 [7]): 86.6%
Activity (MCF7 [8]): 69.47%
GI50 [9]: 69 nM
GI50 (SF-268): 50 nM
GI50 (NCI-H226): 130 nM
GI50 (IGROV-1): < 10 nM
ΔTm (Calf thymus DNA): 7 °C
Activity (MCF7 [10]): 17.13%
GI50 (SR): 30 nM
GI50 (HL-60(TB)): 30 nM
GI50 (SK-MEL-28): 60 nM
GI50 (COLO 205): 70 nM
GI50 (MDA-MB-468): 110 nM
GI50 (CCRF-CEM): 20 nM
GI50 [11]: 160 nM
GI50 [12]: 120 nM
GI50 (786-0): 190 nM
GI50 (NCI-H23): 260 nM
GI50 (NCI-H322M): 250 nM
inhibition (MCF7 [13]): Active
GI50 (NCI-H460): 250 nM
GI50 (KM12): 150 nM
GI50 (T47D): 170 nM
GI50 (TK-10): 120 nM
GI50 (HT-29): 50 nM
GI50 (MDA-MB-435): 10 nM
inhibition (MCF7 [14]): Active
GI50 (HCT-116): 60 nM
GI50 (NCI-H522): < 10 nM
GI50 (MCF7 [15]): 40 nM
GI50 [16]: 150 nM
GI50 (A549): 140 nM
GI50 [17]: 280 nM
GI50 (ACHN): 250 nM
GI50 (A2780): 120 nM
GI50 (SK-OV-3): 290 nM
GI50 (PC-3): 30 nM
GI50 [18]: 20 nM
GI50 [19]: 120 nM
Activity (MCF7 [20]): 3.87%
GI50 (KB): 130 nM
GI50 (SNB-19): 210 nM
growth at 4 µM (MCF7 [21]): 35.2%
GI50 (U-251): 30 nM
GI50 (CAKI-1): 120 nM
GI50 (M14): 150 nM
GI50 (SN12C): 270 nM
GI50 [22]: 30 nM
GI50 (A498): 170 nM
GI50 [23]: 950 nM
GI50 [24]: 130 nM
GI50 [25]: 30 nM
GI50 [26]: 220 nM
GI50 (SK-MEL-2): 190 nM
GI50 (ZR-75-1): 130 nM
GI50 (HOP-62): 80 nM
GI50 [27]: 140 nM
GI50 (SK-MEL-5): 230 nM
GI50 (SiHa): 140 nM
Activity (MCF7 [28]): 9.53%
